Results as given in paper PMC12254070, “Antimicrobial Peptides Design Using Deep Learning and Rational Modifications: Activity in Bacteria, Candida albicans, and Cancer Cells” (Current Microbiology, 2025).
Read-outs that look alike come from different tables or passages of the source. Ends that are not written are not given here.

How the values were obtained:
S. aureus ATCC 25923 = format: cell-based, Staphylococcus aureus
Experimental: (§1) The antimicrobial activity of the peptides was evaluated with S. aureus ATCC 25923, P. aeruginosa ATCC 27853, Escherichia coli ATCC 25922, Klebsiella quasipneumoniae ATCC 700603, and the yeast C. albicans ATCC 10231. The minimum inhibitory concentration (MIC) was determined following the protocol described by Wiegand et al.. Briefly, bacteria were grown overnight in Mueller–Hinton (MH) medium at 37 °C and 90 rpm, while C. albicans was grown at 30 °C in MH supplemented with 30% YPD (yeast extract, peptone, dextrose). The concentration of bacteria and C. albicans was adjusted to 10^6 CFU/mL. […] Microorganism growth was measured hourly at 600 nm for 24 h, with a 10-s shaking cycle, on a Multiskan Go microplate reader (Thermo Scientific). The experiments with bacteria were incubated at 37 °C, whereas those with C. albicans were incubated at 30 °C. Each peptide was evaluated by duplicate on 2 different days. The MIC was estimated as the minimum peptide concentration at which the microorganism had no growth. […] In all assays, untreated culture medium without peptides was included as a negative control to account for basal microbial growth. All assays were performed in two independent experiments, each conducted with two technical replicates (n = 4 per condition).

human red blood cells [1] = settings: red cells of human, 3 h
P. aeruginosa ATCC 27853 = format: cell-based, Pseudomonas aeruginosa
Experimental: as §1

C. albicans ATCC 10231 = format: cell-based, Candida albicans
Experimental: as §1

[2] = test system: Escherichia coli ATCC 25922; format: cell-based
Experimental: as §1

[3] = test system: Klebsiella quasipneumoniae ATCC 700603; format: cell-based
Experimental: as §1

[4] = test system: human breast adenocarcinoma (MCF-7) cells; format: cell-based
Experimental: (§2) The methodology proposed by Zhang et al. […] After 24 h of incubation, the wells were washed twice with PBS, and 10 μL of MTT solution was added to each well at a final concentration of 0.5 mg/mL, and the cell cultures were incubated for 4 h at 37 °C. The solution was removed from each well, and the formazan crystals were dissolved with 100 μL of Sodium Dodecyl Sulfate (0.01 M). After 16 h, absorbance was measured with a MultiSkan Go microplate reader at 570 nm. The untreated wells were used as a negative control, while wells treated with DMSO were used as a positive control for cytotoxicity. The percent viability was determined using the following equation. %viability=[…]-×100% where ABSM is the average absorbance with the treatment and ABSC is the absorbance obtained in the controls (positive and negative).

[5] = test system: human lung adenocarcinoma (A549) cells; format: cell-based
Experimental: as §2

human red blood cells [6] = test: Hemolysis assay; settings: human erythrocytes 1:10 in 0.9% PBS, 50 µM peptide, 37 °C, 3 h, OD 545 nm, 0.1% Triton X-100 = positive control, three replicate wells
[7] = Mueller–Hinton, 10^6 CFU/mL, 37 °C, 24 h, OD 600 nm, minimum concentration with no growth, n = 4
[8] = minimum bactericidal concentration, value in brackets

Sequence | IC50 (S. aureus ATCC 25923; ATCC 25923, 24 h) [µM] | MBC S.a (S. aureus ATCC 25923; ATCC 25923, 24 h) | MIC S.a (S. aureus ATCC 25923; ATCC 25923, 24 h) | % Hemolysis at 50 µM (human red blood cells [1]) [%] | IC50 (P. aeruginosa ATCC 27853; ATCC 27853, 24 h) [µM] | MBC P.a (P. aeruginosa ATCC 27853; ATCC 27853, 24 h) [µM] | MIC P.a (P. aeruginosa ATCC 27853; ATCC 27853, 24 h) [µM] | IC50 (C. albicans ATCC 10231; ATCC 10231, 24 h) [µM] | MFC C.a (C. albicans ATCC 10231; ATCC 10231, 24 h) | IC50 ([2]; ATCC 25922, 24 h) [µM] | MBC E.c ([2]; ATCC 25922, 24 h) [µM] | MIC E.c ([2]; ATCC 25922, 24 h) [µM] | IC50 ([3]; ATCC 700603, 24 h) [µM] | MBC K.q ([3]; ATCC 700603, 24 h) | MIC K.q ([3]; ATCC 700603, 24 h) | IC50 ([4]; 24 h) [µM] | IC50 ([5]; 24 h) [µM] | MHC (minimum hemolytic concentration) (human red blood cells [1]) [µM] | other results
IKPVVKGIKGVKNFFK [VeP2] | 53.2 | > 102.9 µM | 51.5 µM | 3.0 | 21.9 | 102.9 | 51.5 | 23.7 | > 102.9 µM | 22.8 | 103 | 103 | 30.7 | > 103 µM | 103 µM | 34.2 | 69.6 | – | –
FKKLLKFLKWLF [VeP1] | 2.1 | 3.5 µM | – | – | 31.7 | 56.6 | 56.6 | 31.7 | > 113.1 µM | 5.8 | 14.1 | – | 5.9 | 28.3 µM | 28.3 µM | – | – | 4.25 | –
AGLARKWLKLPIGVLAR [OrP1] | 24.2 | > 99.3 (> 99.3) µM | > 99.3 (> 99.3) µM | 1.2 | 14.8 | 99.3 | 49.7 | 14.8 | 49.7 µM | 5.8 | 12.4 | 12.4 | 22.4 | > 99.3 µM | 49.7 µM | 9.1 | 21.7 | – | –
IKKWGKVLKKLI [VeP1M] | – | – | – | – | – | – | – | – | – | – | – | – | – | – | – | – | – | – | MIC S.a (S. aureus ATCC 25923; [7]): 15.2 µM; IC50 (S. aureus ATCC 25923; half inhibitory concentration against the microorganism, Table S4, dose-response curves, read-out: IC50 S.a.): 8.3 µM; MBC S.a (S. aureus ATCC 25923; [8]): 15.2 µM; % Hemolysis at 50 µM (human red blood cells [6]): 0.0%; MIC P.a (P. aeruginosa ATCC 27853; [7]): 3.8 µM; IC50 (P. aeruginosa ATCC 27853; half inhibitory concentration against the microorganism, Table S4, dose-response curves, read-out: IC50 P.a.): 10 µM; MBC P.a (P. aeruginosa ATCC 27853; [8]): 3.8 µM; MIC C.a (C. albicans ATCC 10231; MH + 30% YPD, 10^6 CFU/mL, 30 °C, 24 h, OD 600 nm, minimum concentration with no growth, n = 4): 15.2 µM; IC50 (C. albicans ATCC 10231; half inhibitory concentration against the microorganism, Table S4, dose-response curves, read-out: IC50 C.a.): 10 µM; MFC C.a (C. albicans ATCC 10231; minimum fungicide concentration, value in brackets): 30.3 µM; MIC E.c [2, 7]: 7.6 µM; IC50 ([2]; half inhibitory concentration against the microorganism, Table S4, dose-response curves, read-out: IC50 E.c.): 3.7 µM; MBC E.c [2, 8]: 7.6 µM; MIC K.q [3, 7]: 30.4 µM; IC50 ([3]; half inhibitory concentration against the microorganism, Table S4, dose-response curves, read-out: IC50 K.q.): 6.8 µM; MBC K.q [3, 8]: 30.4 µM; IC50 ([4]; MTT, 24 h incubation with peptide, triplicate, non-linear regression, read-out: IC50 MCF-7): 13.6 µM; IC50 ([5]; MTT, 24 h incubation with peptide, triplicate, non-linear regression, read-out: IC50 A549): 35 µM
FKLFCVAKRLPKKVL [OrP9] | – | > 119.2 (> 119.2) µM | > 119.2 (> 119.2) µM | – | 44.1 | 29.8 | 14.9 | 44.1 | > 119.2 (> 119.2) µM | 4.9 | 7.5 | 7.5 | 93 | > 119.2 (> 119.2) µM | > 119.2 (> 119.2) µM | > 100 | – | – | –
IGKVWKVAKKLIKI [OrP9M] | 4.5 | 31.1 µM | 15.6 µM | – | 4.9 | 1.9 | – | 4.9 | – | 3.2 | 7.8 | 7.8 | 3.8 | 15.6 µM | 15.6 µM | < 6.25 | 25.1 | – | –
LKRLAKLLKKWIKA [OrP4M] | 3.4 | 14.1 µM | 7.1 µM | – | 9.4 | 3.5 | 3.5 | 9.4 | 28.2 µM | 2.2 | 3.5 | 3.5 | 3.3 | 14.1 µM | 7.1 µM | < 6.25 | – | 59.91 | –
LAKRWLKLLGKLAK [OrP1M] | 2.3 | 3.9 µM | 3.9 µM | – | 10.1 | 3.9 | 3.9 | 10.1 | 31.6 µM | 1.5 | 1.9 | – | 4.5 | 15.8 µM | 15.8 µM | < 6.25 | 21.1 | – | –
AIVKKIGKIWKNFIK [VeP2M] | 7.9 | 31.3 µM | 15.6 µM | 7.1 | 5.9 | 15.6 | 7.8 | 5.9 | 31.3 µM | 1.6 | 3.9 | 3.9 | 9.2 | 62.6 µM | 31.3 µM | 21.9 | 34.9 | 68.64 | –
AKLLGKLLRKKIGVL [OrP4] | – | > 125.2 (> 125.2) µM | > 125.2 (> 125.2) µM | – | 23.3 | 31.3 | 15.7 | 23.3 | 125.3 µM | 14.8 | 62.6 | 31.3 | 29 | > 125.2 (> 125.2) µM | – | > 100 | – | 28.98 | –
AGLKKLAKKLGKVVL [OrP3] | 10.1 | 27.8 µM | 27.8 µM | 0.0 | 9.6 | 13.9 | 13.9 | 9.6 | 27.8 µM | 1.6 | 3.5 | 3.5 | 6 | 27.8 µM | 13.9 µM | 23.2 | 33.1 | – | –
